In assay [1] the test system is Mycobacterium tuberculosis (Mtb). Kind of assay: microbe, parasite or virus in culture. Particulars: 168 h. Format: cell-based, Mycobacterium tuberculosis H37Rv (Mtb-GFP).
Assay [2] concerns Staphylococcus aureus (methicillin resistant, MB5393, COL). Kind of assay: microbe, parasite or virus in culture. It is filed as cell-based. Particulars: MRSA, 22 h, read-out: MRSA COL MITC95 μM.
The subject of assay [3] is mitochondrial protein synthesis in HepG2 cells (COX-I / SDH-A). Description: Mitochondrial protein synthesis assay. It is filed as cell-based. Particulars: Homo sapiens, 96 h; HepG2 cells, 4 days, ratio of COX-1 to SDH-A levels; read-out: MPS IC50_μM. The procedure: (§1) Inhibition of mitochondrial protein synthesis was assessed in HepG2 cells by comparing the levels of two subunits of oxidative phosphorylation enzyme complexes, subunit I of Complex IV (COX-I) and the 70 kDa subunit of Complex II (SDH-A). COX-I is mitochondrial DNA encoded and SDH-A is nuclear DNA encoded. HepG2 cells were seeded in 96-well collagen coated plates at 8,000 cells per well and exposed to 2-fold serial dilutions of compounds from 100 LM to 6.25 μM. Microtiter plates were incubated for approximately 5 replication cycles (4 days) prior to assessment of protein levels using a kit as described by the manufacturer (ab 110217 MitoBiogenesis In Cell ELISA Kit, Abcam, Cambridge, Mass.). Inhibition of mitochondrial protein synthesis was expressed as a ratio of COX-1 to SDH-A levels.
as §1, with “μM” for “LM”

Where [4] appears, read: pH 6.8, read-out: Mtb Cho MITC95_μM.
Where [5] appears, read: pH 6.8, read-out: Mtb Glu MITC95_μM.

Values after ≈ are worked out from the molar mass of the structure shown. Read-outs that look alike come from different tables or passages of the source. Some results are limits rather than exact numbers.

`NC[C@H]1CN(c2ccc(-c3ccc4ncnn4c3)c(F)c2)C(=O)O1` [Example 5, (5S)-5-(aminomethyl)-3-(3-fluoro-4-[1,2,4]triazolo[1,5-a]pyridin-6-ylphenyl)-1,3-oxazolidin-2-one]: the MIC is 0.09 µM (≈ 0.0295 µg/mL) in assay [1] (setting [4]), 0.04 µM (≈ 0.0131 µg/mL) in assay [1] (setting [5]) and 200 µM (≈ 65.5 µg/mL) in assay [2]. Also, the IC50 in assay [3] was greater than 20 µM.

Turning to `NC[C@H]1CN(c2ccc(-c3ccc4c(c3)CNC4=O)c(F)c2)C(=O)O1` [Example 34, 5-{4-[(5S)-5-(aminomethyl)-2-oxo-1,3-oxazolidin-3-yl]-2-fluorophenyl}-2,3-dihydro-1H-isoindol-1-one], the values for the MIC in assay [1] (setting [4]), in assay [1] (setting [5]) and in assay [2] were 0.04 µM (≈ 0.0137 µg/mL), 0.04 µM (≈ 0.0137 µg/mL) and 200 µM (≈ 68.3 µg/mL), respectively. Besides, the IC50 in assay [3] is greater than 20 µM.

In the case of `CSc1ccc(-c2ccc(N3C[C@H](COc4ccon4)OC3=O)cc2F)cc1` [Example 49, (R)-3-(2-fluoro-4′-(methylthio)-[1,1′-biphenyl]-4-yl)-5-((isoxazol-3-yloxy)methyl)oxazolidin-2-one], the MIC stood at 0.58 µM (≈ 0.232 µg/mL) in assay [1] (setting [4]), 0.58 µM (≈ 0.232 µg/mL) in assay [1] (setting [5]) and 200 µM (≈ 80.1 µg/mL) in assay [2]. The IC50 in assay [3] is greater than 20 µM.

As for `CSc1ccc(-c2ccc(N3C[C@H](Cn4cncn4)OC3=O)cc2F)cc1` [Example 43, (R)-5-((1H-1,2,4-triazol-1-yl)methyl)-3-(2-fluoro-4′-(methylthio)-[1,1′-biphenyl]-4-yl)oxazolidin-2-one], the MIC in assay [1] (setting [4]) was found to be 0.19 µM (≈ 0.073 µg/mL); in assay [1] (setting [5]), 0.58 µM (≈ 0.223 µg/mL); in assay [2], 200 µM (≈ 76.9 µg/mL). Further, the IC50 in assay [3] was greater than 20 µM.

`C[S+]([O-])c1ccc(-c2ccc(N3C[C@H](CN)OC3=O)cc2F)cc1` (stereo partly drawn) [Example 7, (5S)-5-(aminomethyl)-3-[2-fluoro-4′-(methylsulfinyl)biphenyl-4-yl]-1,3-oxazolidin-2-one]: the values for the MIC in assay [1] (setting [4]), in assay [1] (setting [5]) and in assay [2] were 0.09 µM (≈ 0.0314 µg/mL), 0.04 µM (≈ 0.0139 µg/mL) and 200 µM (≈ 69.7 µg/mL), respectively. The IC50 in assay [3] was greater than 20 µM.

With `NC[C@H]1CN(c2ccc(-c3cnn4ncccc34)c(F)c2)C(=O)O1` [Example 38, (5S)-5-(aminomethyl)-3-(3-fluoro-4-pyrazolo[1,5-b]pyridazin-3-ylphenyl)-1,3-oxazolidin-2-one], the values for the MIC in assay [1] (setting [4]), in assay [1] (setting [5]) and in assay [2] were 0.39 µM (≈ 0.128 µg/mL), 0.14 µM (≈ 0.0458 µg/mL) and 200 µM (≈ 65.5 µg/mL), respectively. In addition, the IC50 in assay [3] was greater than 20 µM.

In the case of `CC(=O)NC[C@H]1CN(c2ccc(N3CCOCC3)c(F)c2)C(=O)O1` [linezolid, reference compound], the MIC in assay [1] (setting [4]) came to 3.14 µM (≈ 1.06 µg/mL); in assay [1] (setting [5]) it was 4.58 µM (≈ 1.55 µg/mL); in assay [2], 6.25 µM (≈ 2.11 µg/mL). Also, in assay [3], the IC50 was determined as 8 µM.

Regarding `N#Cc1ccc(-c2ccc(N3C[C@H](CN)OC3=O)cc2F)cc1` [Example 18, 4′-[(5S)-5-(aminomethyl)-2-oxo-1,3-oxazolidin-3-yl]-2′-fluorobiphenyl-4-carbonitrile], the MIC in assay [1] (setting [4]) came out at 0.09 µM (≈ 0.028 µg/mL); in assay [1] (setting [5]), 0.04 µM (≈ 0.0125 µg/mL); in assay [2] it was 50 µM (≈ 15.6 µg/mL). In addition, the IC50 in assay [3] is greater than 20 µM.

As for `CSc1ccc(-c2ccc(N3C[C@H](CNC(=O)C4CC4)OC3=O)cc2F)cc1` [Example 41, (S)—N-((3-(2-fluoro-4′-(methylthio)-[1,1′-biphenyl]-4-yl)-2-oxooxazolidin-5-yl)methyl)cyclopropanecarboxamide], the MIC is 0.04 µM (≈ 0.016 µg/mL) in assay [1] (setting [4]), 0.04 µM (≈ 0.016 µg/mL) in assay [1] (setting [5]) and 200 µM (≈ 80.1 µg/mL) in assay [2]. Besides, the IC50 in assay [3] was determined as 8 µM.

With `CSc1ncc(-c2ccc(N3C[C@H](CN)OC3=O)cc2F)cn1` [Example 32, (5S)-5-(aminomethyl)-3-{3-fluoro-4-[2-(methylsulfanyl)pyrimidin-5-yl]phenyl}-1,3-oxazolidin-2-one], the values for the MIC in assay [1] (setting [4]), in assay [1] (setting [5]) and in assay [2] were 0.29 µM (≈ 0.097 µg/mL), 0.24 µM (≈ 0.0803 µg/mL) and 200 µM (≈ 66.9 µg/mL), respectively. Moreover, the IC50 in assay [3] is greater than 20 µM.

Regarding `NC[C@H]1CN(c2ccc(-c3ccc(S(N)(=O)=O)cc3)c(F)c2)C(=O)O1` [Example 6, 4′-[(5S)-5-(aminomethyl)-2-oxo-1,3-oxazolidin-3-yl]-2′-fluorobiphenyl-4-sulfonamide], the MIC in assay [1] (setting [4]) was determined as 0.04 µM (≈ 0.0146 µg/mL); in assay [1] (setting [5]), 0.04 µM (≈ 0.0146 µg/mL); in assay [2], 100 µM (≈ 36.5 µg/mL). The IC50 in assay [3] is greater than 20 µM.

On to `CC(C)(O)c1ncc(-c2ccc(N3C[C@H](CN)OC3=O)cc2F)s1` [Example 23, (5S)-5-(aminomethyl)-3-{3-fluoro-4-[2-(1-hydroxy-1-methylethyl)-1,3-thiazol-5-yl]phenyl}-1,3-oxazolidin-2-one], for which the results for the MIC in assay [1] (setting [4]), in assay [1] (setting [5]) and in assay [2] were 0.19 µM (≈ 0.0668 µg/mL), 0.19 µM (≈ 0.0668 µg/mL) and 200 µM (≈ 70.3 µg/mL), respectively. In assay [3], the IC50 is greater than 20 µM.

Regarding `NC[C@H]1CN(c2ccc(-c3ccc(Cl)nc3)c(F)c2)C(=O)O1` [Example 22, (5S)-5-(aminomethyl)-3-[4-(6-chloropyridin-3-yl)-3-fluorophenyl]-1,3-oxazolidin-2-one], the results for the MIC in assay [1] (setting [4]), in assay [1] (setting [5]) and in assay [2] were 0.19 µM (≈ 0.0611 µg/mL), 0.04 µM (≈ 0.0129 µg/mL) and 100 µM (≈ 32.2 µg/mL), respectively. For the same compound, the IC50 in assay [3] is greater than 20 µM.

(Values after patent US10947205B2, “Oxazolidinone compounds and methods of use thereof as antibacterial agents” (priority 2015, dated 2021).)
